Data published in ChEMBL document CHEMBL4673309, “Synthesis and anticancer activity of new coumarin-3-carboxylic acid derivatives as potential lactatetransportinhibitors” (Bioorg Med Chem, 2021).
Active and inactive are the calls of the source. The calls are words filed in the database; no cut-off is given here.

Assays:
HCT-116 [1] = experiment: Cytotoxicity against human HCT-116 cells overexpressing MCT-1 assessed as reduction in cell viability measured after 72 hrs by MTT assay; assay type: functional, cell-based; details: HCT-116, 72 h
HeLa [2] = experiment: Cytotoxicity against human HeLa cells overexpressing MCT-1 assessed as reduction in cell viability measured after 72 hrs by MTT assay; assay type: functional, cell-based
NCM460 = experiment: Cytotoxicity against human NCM460 cells harboring low MCT1 expression incubated for 72 hrs by MTT assay; assay type: cell-based; details: ncm460, 72 h
HCT-116 [3] = experiment: Induction of apoptosis in human HCT-116 cells assessed as late apoptotic cells measured after 48 hrs by annexinV-FITC/propidium iodide staining based by flow cytometry (reference value: 2.78 %); assay type: functional
HCT-116 [4] = experiment: Antiproliferative activity against human HCT-116 cells assessed as reduction in cell proliferation at IC50 incubated for 6 days and measured on day 6 by MTS assay; assay type: functional, cell-based; details: time 6.0 day
HeLa [5] = experiment: Inhibition of lactate transport in human HeLa cells assessed as increase in intracellular lactate level at IC50 measured after 8 to 24 hrs by colorimetric assay; assay type: functional, cell-based; details: time 8-24 hrs
HeLa [6] = experiment: Induction of apoptosis in human HeLa cells assessed as early apoptosis measured after 48 hrs by annexinV-FITC/propidium iodide staining based by flow cytometry (reference value: 2.94 %); assay type: functional
HeLa [7] = experiment: Decrease in intracellular glucose level in human HeLa cells at IC50 after 4 hrs by colorimetric assay; assay type: functional, cell-based
HeLa [8] = experiment: Reduction of lactate production in human HeLa cells at IC50 after 8 hrs by colorimetric assay; assay type: functional, cell-based
HeLa [9] = experiment: Induction of apoptosis in human HeLa cells assessed as late apoptotic cells measured after 48 hrs by annexinV-FITC/propidium iodide staining based by flow cytometry (reference value: 3.85 %); assay type: functional
HCT-116 [10] = experiment: Reduction of lactate production in human HCT-116 cells at IC50 after 4 to 24 hrs by colorimetric assay; assay type: functional, cell-based; details: time 4-24 hrs
HCT-116 [11] = experiment: Decrease in glucose consumption in human HCT-116 cells at IC50 after 4 to 24 hrs by glucose oxidase based colorimetric assay; assay type: functional, cell-based; details: time 4-24 hrs
HCT-116 [12] = experiment: Induction of apoptosis in human HCT-116 cells assessed as early apoptosis measured after 48 hrs by annexinV-FITC/propidium iodide staining based by flow cytometry (reference value: 3.42 %); assay type: functional
HeLa [13] = experiment: Decrease in glucose consumption in human HeLa cells at IC50 after 12 hrs by glucose oxidase based colorimetric assay; assay type: functional, cell-based
HeLa [14] = experiment: Decrease in intracellular glucose level in human HeLa cells at IC50 after 24 hrs by colorimetric assay; assay type: functional, cell-based
HCT-116 [15] = experiment: Decrease in intracellular glucose level in human HCT-116 cells at IC50 after 24 hrs by colorimetric assay; assay type: functional, cell-based
HCT-116 [16] = experiment: Inhibition of lactate uptake in human HCT-116 cells at 0.01 to 100 uM after 24 hrs by colorimetric assay; assay type: functional, cell-based; details: dose 0.01-100 µM
HeLa [17] = experiment: Downregulation of MCT1 expression in human HeLa cells at 0.01 to 100 uM measured after 48 hrs by Western blot analysis; assay type: functional, cell-based; details: dose 0.01-100 µM
HeLa [18] = experiment: Antiproliferative activity against human HeLa cells assessed as reduction in cell proliferation at IC50 incubated for 6 days and measured on day 6 by MTS assay; assay type: functional, cell-based; details: time 6.0 day
HeLa [19] = experiment: Inhibition of lactate uptake in human HeLa cells at high concentration after 24 hrs by colorimetric assay; assay type: functional, cell-based
HCT-116 [20] = experiment: Downregulation of MCT1 expression in human HCT-116 cells at 0.01 to 100 uM measured after 48 hrs by Western blot analysis; assay type: functional, cell-based; details: dose 0.01-100 µM
HCT-116 [21] = experiment: Decrease in intracellular glucose level in human HCT-116 cells at IC50 after 4 hrs by colorimetric assay; assay type: functional, cell-based
HeLa [22] = experiment: Inhibition of lactate uptake in human HeLa cells at low concentration after 24 hrs by colorimetric assay; assay type: functional, cell-based
HCT-116 [23] = experiment: Inhibition of lactate transport in human HCT-116 cells assessed as increase in intracellular lactate level at IC50 measured after 8 hrs by colorimetric assay; assay type: functional, cell-based

SMILES | IC50 (HCT-116 [1]) [µM] | IC50 (HeLa [2]) [µM] | Activity (NCM460) | other results
O=C(NCCO)c1cc2ccc(OCc3ccccc3)cc2oc1=O | 18.7 | 14.2 | Non-Toxic | 
O=C(NCCNC(=O)c1cc2ccc(OCc3cccc(Br)c3)cc2oc1=O)c1cc2ccc(OCc3cccc(Br)c3)cc2oc1=O | 11.6 | 5.52 | Non-Toxic | 
CCN(CC)c1ccc2cc(C(=O)NO)c(=O)oc2c1 | 37.6 | 35.9 | Non-Toxic | 
CCN(CC)c1ccc2cc(C(=O)NC(C)C)c(=O)oc2c1 | > 100 | 73 | Non-Toxic | 
CCN(CC)c1ccc2cc(C(=O)NC3CC3)c(=O)oc2c1 | > 100 | > 100 | Non-Toxic | 
CCN(CC)c1ccc2cc(C(=O)N/N=C(/C)c3cccnc3)c(=O)oc2c1 | > 100 | 70 | Non-Toxic | 
CCN(CC)c1ccc2cc(C(=O)NCCO)c(=O)oc2c1 | > 100 | > 100 | Non-Toxic | 
O=C(Nc1ccccc1)c1cc2ccc(OCc3ccccc3)cc2oc1=O | > 100 | > 100 | Non-Toxic | 
O=c1c(O)c(-c2ccc(O)c(O)c2)oc2cc(O)cc(O)c12 [QUERCETIN] | 43.9 | 22.5 | Non-Toxic | Activity (HCT-116 [3]): 10.3%; Activity (HCT-116 [4]): Active; inhibition (HeLa [5]): Active; Activity (HeLa [6]): 4.92%; inhibition (HeLa [7]): Active; inhibition (HeLa [8]): Active; Activity (HeLa [9]): 14.2%; inhibition (HCT-116 [10]): Active; inhibition (HCT-116 [11]): Active; Activity (HCT-116 [12]): 5.35%
CCN(CC)c1ccc2cc(C(=O)N/N=C(/C)c3cccs3)c(=O)oc2c1 | > 100 | > 100 | Non-Toxic | 
O=C(NCCNC(=O)c1cc2ccc(OCc3ccc([N+](=O)[O-])cc3)cc2oc1=O)c1cc2ccc(OCc3ccc([N+](=O)[O-])cc3)cc2oc1=O | 68.1 | 13.9 | Non-Toxic | 
CCCOc1ccc2cc(C(=O)NN)c(=O)oc2c1 | 69.8 | > 100 | Non-Toxic | 
O=C(NCCNC(=O)c1cc2ccc(OCc3ccccc3)cc2oc1=O)c1cc2ccc(OCc3ccccc3)cc2oc1=O | 15.9 | 12.1 | Non-Toxic | 
CCCOc1ccc2cc(C(=O)NCCO)c(=O)oc2c1 | > 100 | 22.6 | Non-Toxic | 
NNC(=O)c1cc2ccc(OCc3cccc(Br)c3)cc2oc1=O | > 100 | > 100 | Non-Toxic | 
CCOc1ccc2cc(C(=O)NCCO)c(=O)oc2c1 | > 100 | > 100 | Non-Toxic | 
O=C(NCCO)c1cc2ccc(OCc3ccc([N+](=O)[O-])cc3)cc2oc1=O | 33.4 | 6.89 | Non-Toxic | 
NNC(=O)c1cc2ccc(OCc3ccccc3)cc2oc1=O | > 100 | > 100 | Non-Toxic | 
CCN(CC)c1ccc2cc(C(=O)NN)c(=O)oc2c1 | 3.36 | 5.48 | Non-Toxic | Activity (HCT-116 [3]): 5.94%; inhibition (HeLa [13]): Active; inhibition (HeLa [14]): Active; inhibition (HCT-116 [15]): inactive; Activity (HCT-116 [4]): Active; inhibition (HCT-116 [16]): Active; inhibition (HeLa [5]): Active; Activity (HeLa [6]): 5.28%; inhibition (HeLa [17]): Active; Activity (HeLa [18]): Active; inhibition (HeLa [19]): inactive; inhibition (HCT-116 [20]): Active; inhibition (HeLa [8]): Active; Activity (HeLa [9]): 6.47%; inhibition (HCT-116 [10]): Active; inhibition (HCT-116 [11]): Active; inhibition (HCT-116 [21]): Active; Activity (HCT-116 [12]): 2.52%; inhibition (HeLa [22]): Active; inhibition (HCT-116 [23]): Active
O=C(NCCO)c1cc2ccc(OCc3cccc(Br)c3)cc2oc1=O | 30.8 | 17.6 | Non-Toxic | 
O=C(NO)c1cc2ccc(OCc3ccccc3)cc2oc1=O | 39.5 | 31.8 | Non-Toxic | 
NNC(=O)c1cc2ccc(OCc3ccc([N+](=O)[O-])cc3)cc2oc1=O | > 100 | > 100 | Non-Toxic | 
CCOc1ccc2cc(C(=O)NN)c(=O)oc2c1 | > 100 | 38.3 | Non-Toxic | 
N#C/C(=C\c1ccc(O)cc1)C(=O)O [alpha-CYANO-4-HYDROXYCINNAMIC ACID] | 1650 | 2140 | Non-Toxic | Activity (HCT-116 [3]): 9.36%; inhibition (HeLa [5]): Active; Activity (HeLa [6]): 8.8%; Activity (HeLa [18]): Active; inhibition (HeLa [7]): Active; inhibition (HeLa [8]): Active; Activity (HeLa [9]): 13.6%; inhibition (HCT-116 [10]): Active; inhibition (HCT-116 [11]): Active; Activity (HCT-116 [12]): 2.07%
